Laboratory results from US8642656B2, “Calixarene-based peptide conformation mimetics, methods of use, and methods of making” (priority 2004, dated 2014).
Entries after “also recorded” stand apart in the source; their conditions may differ. Where two headings read alike, the source gives them in different places.

Experiments:
[1] = tested on: endothelial cell (EC); assay: EC Proliferation Assay, [3H]thymidine incorporation (Example 36, Table 1); format: cell-based; details: read-out: EC proliferation IC50 (conc)
Description: Human umbilical vein derived EC(HUVEC) were harvested from normal human umbilical cords by perfusion with 0.125% trypsin/EDTA as described in Groenewegen et al., J. Exp. Med. 164, 131-143 (1986). For determination of quiescent EC phenotype isolated ECs were immediately fixed in 1% paraformaldehyde. Human microvascular ECs (MVECs) were isolated. ECs were cultured in fibronectin coated tissue culture flasks in culture medium (RPMJ-1640 with 20% human serum (HS), supplemented with 2 mM glutamine and 100 U/ml penicillin and 0.1 mg/ml streptomycin).
EC proliferation was measured using a [^3H]thymidine incorporation assay. ECs were seeded at 5000 cells/well in flatbottomed tissue culture plates and grown for 3 days, in the absence or presence of regulators, in culture medium. During the last 6 hours of the assay, the culture was pulsed with 0.5μ Ci [methyl-^3H]thymidine/well.

[2] = tested on: EC; assay: EC % apoptosis (Table 1); format: cell-based, human
[3] = tested on: EC; assay: EC % total cell death (Table 1); format: cell-based, human
[4] = tested on: Fibro; assay: Other cells, Fibro (Table 1); format: cell-based
[5] = tested on: MA148; assay: Other cells, MA148 (Table 1); format: cell-based, human
[6] = tested on: SCK; assay: Other cells, SCK (Table 1); format: cell-based
[7] = tested on: E. coli J96; assay: Bactericidal assay on J96; format: cell-based; details: for IC50: read-out: Bacterial activity on J96 IC50 (conc)
From the text: Pseudomonas aeruginosa type 1 is a clinical, smooth strain isolate stereotyped by using the scheme of Homma et al., Japan. J. Exp. Med. 46, 329-336 (1976) and maintained in the lab by monthly transfer on blood agar plates. E. coli J96, IA2, and H5 are smooth strain, uropathogenic clinical isolates kindly maintained and provided by J. R. Johnson and described in Johnson et al., J. Infect. Disease 173, 920-926 (1996) for J96 and IA2 and in Johnson et al., J. Infect. Disease 173, 746-749 (1996) for H5. J5 is an E. coli rough strain initially referenced by G. R. Siber and discussed in Warren et al., Infect. Immunity 55, 1668-1673 (1987) and is analogous to the smooth strain E. coli 0111:B4 used in the BioWhittaker LAL endotoxin detection and quantitation kit described below. Gram-positive MN8 and MNHO are two patient isolates of Staphylococcus aureus, which were kindly provided by P. M. Schlievert and described in Bohach et al., Rev. Infect. Diseases 11, 75-82 (1989) for MNHO and in Schlievert et al., J. Infect. Diseases 147, 236-242 (1983) for MN8. All cultures are maintained on nutrient agar plates.
Pyrogen-free solutions were used throughout the assay. Log phase bacteria were obtained by transferring an overnight culture or scraping crystals off-85° C glycerol stocks of overnight cultures. Bacteria were washed and resuspended in 0.9% sodium chloride with adjustment to an optical density at 650 nm which yields 3×10^8 CFU/ml. Bacteria were then diluted 1:10 in 0.08 M citrate phosphate buffer, pH 7.0 (prepared by mixing 0.08 M citric acid with 0.08 M dibasic sodium phosphate). Bacteria (0.15 ml) were incubated with the test compound in a final volume of 1.0 ml of buffer. The assay was done in 17×100 polypropylene tubes in a reciprocal water bath shaker at 37° C for 30 minutes. Following this 30 minute (min) incubation. 10-fold dilutions were made in 0.9% sodium chloride. Dilutions were done to 10^−4 and 20 μl of each dilution was streaked across an agar plate. Gram-positive organisms were plated on nutrient agar plates containing 2% agar and Gram-negative organisms were plated on MacConkey agar (2%). Plates were incubated overnight at 37° C and counted the next morning. The dilution containing 10-100 bacteria was counted and the number multiplied by 50 to adjust all counts to the number bacteria killed per milliliter. Compound concentrations were converted to logarithm base ten and graphed. Bactericidal activity was determined by dose response where LD50 values were determined by best fits of a sigmoidal curve to the dose response data.

[8] = Hemolysis (Table 1); format: cell-based; details: at 10^−6 M
[9] = Solubility (Table 1); format: physicochemical; details: for Solubility (solvent, in words): footnotes: 3 mM in 100% DMSO or ethanol → 0.03 mM in H2O
[10] = tested on: LPS from E. coli serotype 0111:B4; assay: LPS neutralization assay (Limulus amoebocyte lysate, QCL-1000); format: biochemical; details: read-out: IC50 values (μM) for LPS binding, E. coli 0111:B4
From the text: (§1) The ability of compounds to neutralize endotoxin was detected in vitro by using the chromogenic QCL-1000 kit from BioWhittaker, Inc. (Walkersville, Md.), and as described in their protocol. This Limulus amoebocyte lysate (LAL) assay is quantitative for Gram negative bacterial endotoxin (lipopolysaccharide, LPS). In this assay compounds that are active inhibit the LPS-mediated activation of a proenzyme whose active form would release p-nitroaniline (pNA) from a colorless synthetic substrate producing a yellow color (pNA) whose absorption is monitored spectrophotometrically at 405-410 nm. The initial rate of enzyme activation is proportional to the concentration of endotoxin present.
(§2) Variants of LPS from six Gram negative bacteria were used: E. coli serotypes 0111:B4 (Combrex, Walkersville, Md.) and 055:B5 (Sigma, St. Louis, Mo.); Klebsiella pneumoniae (List Biologies, San Jose, Calif.); Pseudomonas aeruginosa (List Biologies, San Jose, Calif.); Salmonella typhimurium (List Biologies, San Jose, Calif.), and Serratia marcascens (List Biologies, San Jose, Calif.). The concentration of compound required to neutralize a given LPS and therefore to inhibit the Limulus amoebocyte lysate driven by 0.04 units of any given LPS was determined by dose response curves fit by using a standard sigmoidal function to determined the JC50 value for each lopomimetic compound. The 0.04 units corresponds to 0.01 ng LPS from E. coli serotype 055:B5, 0.01 ng LPS from E. coli serotype 0111:B4, 0.003 ng LPS from K. pneumoniae, 0.01 ng LPS from P. aeruginosa, 0.03 ng LPS from S. typhimurium, and 0.03 ng LPS from S. marcascens.

[11] = tested on: LPS from E. coli serotype 055:B5; assay: as above; format: biochemical
From the text: as §1, §2

[12] = tested on: LPS from P. aeruginosa; assay: as above; format: biochemical, Pseudomonas aeruginosa; details: read-out: IC50 values (μM) for LPS binding, P.a.
From the text: as §1, §2

[13] = tested on: LPS from K. pneumoniae; assay: as above; format: biochemical, Klebsiella pneumoniae; details: read-out: IC50 values (μM) for LPS binding, Klebsiella
From the text: as §1, §2

[14] = tested on: LPS from S. typhimurium; assay: as above; format: biochemical, Salmonella typhimurium; details: read-out: IC50 values (μM) for LPS binding, Salmonella
From the text: as §1, §2

[15] = tested on: LPS from S. marcascens; assay: as above; format: biochemical, Serratia marcascens; details: read-out: IC50 values (μM) for LPS binding, Serratia
From the text: as §1, §2

[16] = tested on: bFGF-stimulated HUVEC; assay: EC proliferation, [3H]-thymidine incorporation, bFGF-stimulated HUVEC (Example 48); format: cell-based, human; details: bFGF-stimulated HUVEC; highest dose tested 25 μM
Description: Proliferation is expressed as mean counts per minute (cpm) of quadruplicate cultures in three independent experiments (±SEM). […] Human umbilical vein derived EC (HUVEC) were harvested from normal human umbilical cords by perfusion with 0.125% trypsin/EDTA. Harvested HUVECs were cultured in gelatin coated tissue culture flasks and subcultured 1:3 once a week in culture medium (RPM1-1640 with 20% human serum (HS), supplemented with 2 mM glutamine and 100 U/mL penicillin and 0.1 mg/mL streptomycin). Statistical analysis was performed by using the Student's t-test.

[17] = tested on: fibroblasts; assay: Proliferation of fibroblasts (general cell toxicity check); format: cell-based; details: read-out: concentration giving 50% growth inhibition, fibroblasts
[18] = tested on: MA148 human ovarian carcinoma; assay: Proliferation of MA148 tumor cells; format: cell-based; details: read-out: IC50 against MA148 tumor cells
[19] = tested on: B16F10 tumor cells; assay: Proliferation of B16F10 tumor cells; format: cell-based, murine; details: read-out: IC50 against B16F10 tumor cells
[20] = tested on: HUVEC; assay: EC migration, wound healing assay; format: cell-based, human; details: 25 μM
Description: EC migration was measured in the wound healing assay. HUVEC were cultured in triplicate on a 1-mg/ml fibronectin coat in a 24-well tissue culture plate. Cells were grown for 3 days until confluence. When confluent, a wound was made in the well, using a blunt glass pipette. The medium was replaced with medium containing 10 ng/ml bFGF with or without 25 μM compound and at 0, 2, 4, 6, and 8 hours, the wound width was measured at four different predefined places. Photographs were made using an inverted microscope and a Contax 167 MT 35 mm camera.

[21] = tested on: LPS from six species of bacteria; assay: LPS neutralization assay, overall statements; format: biochemical; details: library of 23 compounds
From the text: as §1
as §2, with “The 0.04 units corresponds to 0.01 ng LPS from E. coli serotype 055:B5, 0.01 ng LPS from E. coli serotype 0111:B4, 0.003 ng LPS from K. pneumoniae, 0.01 ng LPS from P. aeruginosa, 0.03 ng LPS from S. typhimurium, and 0.03 ng LPS from S. marcascens.” left out

[22] = Table 3, errors estimated ±30%, read-out: IC50 values (μM) for LPS binding, E. coli 055:B5

CC(C)(C)c1cc2c(O)c(c1)Cc1cc(C(C)(C)C)cc(c1OCCNC(=N)N)Cc1cc(C(C)(C)C)cc(c1O)Cc1cc(C(C)(C)C)cc(c1OCCNC(=N)N)C2
IC50 [1]: 8.3 µM | EC % Apoptosis 25 μM [2]: No effect | EC % total cell death [3]: 65% | Other cells 25 μM, Fibro [4]: 100% 100% 100% | Other cells 25 μM, MA148 [5]: 100% 100% 100% | Other cells 25 μM, SCK [6]: 100% 100% 100% | IC50 [7]: > 3.8 µM | Hemolysis [8]: 100% at 10^−6 M | Solubility ([9]; DMSO/H2O (30/70%), at >80° C., no infl. of pH 2 + 11): DMSO/H2O (30/70%) up to 30 mg/ml at >80° C., no infl. of pH 2 + 11

CC(C)(C)c1cc2c(O)c(c1)Cc1cc(C(C)(C)C)cc(c1OCCNC(=N)N)Cc1cc(C(C)(C)C)cc(c1O)Cc1cc(C(C)(C)C)cc(c1OCCN)C2.O=C(O)C(F)(F)F
IC50 [1]: > 25 µM | IC50 [7]: 2.5 µM | Solubility (solvent, in words) [9]: DMSO/H2O

CC(C)(C)c1cc2c(O)c(c1)Cc1cc(C(C)(C)C)cc(c1OCCCCNC(=N)N)Cc1cc(C(C)(C)C)cc(c1OCCCCNC(=N)N)Cc1cc(C(C)(C)C)cc(c1OCCCCNC(=N)N)C2
IC50 [1]: > 25 µM | IC50 [7]: 1.3 µM | Solubility (solvent, in words) [9]: DMSO/H2O

CC(C)CCOc1c2cc(CCC(=O)NCCN(C)C)cc1Cc1cc(CCC(=O)NCCN(C)C)cc(c1OCCC(C)C)Cc1cc(CCC(=O)NCCN(C)C)cc(c1OCCC(C)C)Cc1cc(CCC(=O)NCCN(C)C)cc(c1OCCC(C)C)C2
IC50 [1]: > 25 µM | IC50 [7]: 1.2 µM | Solubility (solvent, in words) [9]: DMSO/H2O

CCCc1cc2c(OCC(=O)NCCN(C)C)c(c1)Cc1cc(CCC)cc(c1OCC(=O)NCCN(C)C)Cc1cc(CCC)cc(c1OCC(=O)NCCN(C)C)Cc1cc(CCC)cc(c1OCC(=O)NCCN(C)C)C2 [Compound 11a]
bactericidal activity (in words) ([7]; in the micromolar range (Table 1)): reasonably good bactericidal activity | IC50 ([10]; Table 3, errors estimated ±30%): > 5 µM | IC50 [11, 22]: 4.4 µM | IC50 ([12]; Table 3, errors estimated ±30%): > 5 µM | IC50 ([13]; Table 3, errors estimated ±30%): 0.08 µM | IC50 ([14]; Table 3, errors estimated ±30%): 4.1 µM | IC50 ([15]; Table 3, errors estimated ±30%): > 5 µM | IC50 [16]: > 25 µM | IC50 [17]: ~20 µM | IC50 [18]: 8 µM | IC50 [19]: 15 µM | effect on EC migration, wound assay (in words) [20]: ineffective

CC(C)(C)c1cc2c(OCCCCN)c(c1)Cc1cc(C(C)(C)C)cc(c1OCCCCNC(=N)N)Cc1cc(C(C)(C)C)cc(c1OCCCCNC(=N)N)Cc1cc(C(C)(C)C)cc(c1OCCCCNC(=N)N)C2.O=C(O)C(F)(F)F [Compound 43, 5,11,17,23-Tetra-tert-butyl-25,26,27-tris(4-guanidinobutyroxy)-28-(4-aminobutyroxy) calix[4]arene trifloroacetic acid salt]
IC50 ([10]; Table 2): 0.4 µM | IC50 ([10]; Table 3, errors estimated ±30%): 0.4 µM | IC50 ([11]; Table 2, read-out: IC50 values (μM) for LPS binding, E. coli 055:B4): 0.1 µM | IC50 [11, 22]: 0.1 µM | IC50 ([12]; Table 2): 0.8 µM | IC50 ([12]; Table 3, errors estimated ±30%): 0.8 µM | IC50 ([13]; Table 2): 0.5 µM | IC50 ([13]; Table 3, errors estimated ±30%): 0.5 µM | IC50 ([14]; Table 2): 0.6 µM | IC50 ([14]; Table 3, errors estimated ±30%): 0.6 µM | IC50 ([15]; Table 2): 3.2 µM | IC50 ([15]; Table 3, errors estimated ±30%): 3.2 µM | neutralizing LPS, ranking in words [21]: best LPS neutralizing compounds; also recorded: most effective for neutralizing LPS

CN(C)CCNC(=O)COc1c2cc(C(C)(C)C)cc1Cc1cc(C(C)(C)C)cc(c1OCC(=O)NCCN(C)C)Cc1cc(C(C)(C)C)cc(c1OCC(=O)NCCN(C)C)Cc1cc(C(C)(C)C)cc(c1OCC(=O)NCCN(C)C)C2 [drawing 10]
IC50 [1]: > 25 µM | EC % Apoptosis 25 μM [2]: No effect | EC % total cell death [3]: No effect | Other cells 25 μM, Fibro [4]: 100% | IC50 [7]: 1.3 µM | Hemolysis [8]: 100% at 10^−6 M | Solubility (solvent, in words) [9]: DMSO/H2O

CC(C)(C)c1cc2c(OCC(=O)NCCN)c(c1)Cc1cc(C(C)(C)C)cc(c1OCC(=O)NCCN)Cc1cc(C(C)(C)C)cc(c1OCC(=O)NCCN)Cc1cc(C(C)(C)C)cc(c1OCC(=O)NCCN)C2 [drawing 14]
IC50 [1]: > 25 µM | IC50 [7]: > 3.8 µM | Solubility (solvent, in words) [9]: DMSO/H2O
